Legend:
Full-length human MNK1 = molecular target: T1, Full-length human MNK1 (Homo sapiens, UniProt Q9BUB5, T385D); assay: MNK1 biochemical IC50 assay (Caliper Mobility Shift Assay); conditions: read-out: P(IC50) MNK1 (converted)
T1 construct: GST (N); purchased Carna Biosciences 02-145; host or cells: baculovirus expression system

Full-length human MNK2 = molecular target: T2, Full-length human MNK2 (Homo sapiens, UniProt Q9HBH9, T379D); assay: MNK2 biochemical IC50 assay (Caliper Mobility Shift Assay); conditions: read-out: P(IC50) MNK2 (converted)
T2 construct: GST (N); purchased Carna Biosciences 02-146; host or cells: baculovirus expression system

[1] = system: phosphorylation of eIF4E at ser209 in MV4.11 cell line; assay: MNK cellular activity phospho-eIF4E detection assay (Alphascreen Surefire); assay type: cell-based; conditions: Homo sapiens; MV4.11 cell line, phospho-eIF4E (ser209) Alphascreen Surefire; read-out: P(IC50) elF4E (converted)
How it was run: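 AlphaScreen SureFire sandwich-immunoassay readout of phospho-eIF4E Ser209 in lysed MV4.11 cells; acceptor then donor beads, each 1.5 hr at room temperature. Signal normalised to untreated DMSO-only controls; duplicate curves, values averaged over at least 2 independent experiments.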

T1 sequence (Q9BUB5 1-424 isoform Q9BUB5-2 T344D): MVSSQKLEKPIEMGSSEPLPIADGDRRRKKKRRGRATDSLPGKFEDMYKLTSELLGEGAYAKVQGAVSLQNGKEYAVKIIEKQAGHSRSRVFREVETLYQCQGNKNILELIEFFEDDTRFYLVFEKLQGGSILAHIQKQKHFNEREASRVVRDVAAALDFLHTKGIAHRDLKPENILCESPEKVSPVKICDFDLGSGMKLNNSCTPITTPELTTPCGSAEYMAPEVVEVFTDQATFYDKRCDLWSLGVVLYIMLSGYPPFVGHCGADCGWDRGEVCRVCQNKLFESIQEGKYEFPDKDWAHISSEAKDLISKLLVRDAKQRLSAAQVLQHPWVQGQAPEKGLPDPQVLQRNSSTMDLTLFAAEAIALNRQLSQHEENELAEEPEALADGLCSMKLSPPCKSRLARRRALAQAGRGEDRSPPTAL
T2 sequence (Q9HBH9 whole entry T379D): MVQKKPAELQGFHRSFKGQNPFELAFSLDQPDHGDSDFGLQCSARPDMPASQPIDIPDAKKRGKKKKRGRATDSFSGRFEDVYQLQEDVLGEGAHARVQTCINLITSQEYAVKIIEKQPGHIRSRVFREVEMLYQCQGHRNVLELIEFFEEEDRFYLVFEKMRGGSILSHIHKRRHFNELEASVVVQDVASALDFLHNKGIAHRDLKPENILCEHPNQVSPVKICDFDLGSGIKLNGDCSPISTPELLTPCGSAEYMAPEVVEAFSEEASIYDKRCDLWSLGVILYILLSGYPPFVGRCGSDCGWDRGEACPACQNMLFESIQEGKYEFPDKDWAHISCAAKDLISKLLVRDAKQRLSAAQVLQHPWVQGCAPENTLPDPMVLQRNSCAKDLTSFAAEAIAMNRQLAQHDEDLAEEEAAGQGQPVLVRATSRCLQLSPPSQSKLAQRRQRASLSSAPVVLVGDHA

| IC50 (Full-length human MNK1) [µM] | IC50 (Full-length human MNK2) [µM] | IC50 [1] [µM] | SMILES |
| --- | --- | --- | --- |
| 0.316 | 0.251 | 0.316 | CC(C)Oc1ncccc1Nc1ncnc2sc(C(=O)NCC3CCNCC3)nc12 [Example 55, 7-[(2-Isopropoxy-3-pyridyl)amino]-N-(4-piperidylmethyl)thiazolo[5,4-d]pyrimidine-2-carboxamide] |
| 0.01 | 0.01 | 0.01 | O=C(NC1CCOCC1)c1nc2c(N3CC(CCO)c4ccccc43)ncnc2s1 (stereo not drawn) [Example 110, 7-[3-(2-hydroxyethyl)indolin-1-yl]-N-tetrahydropyran-4-yl-thiazolo[5,4-d]pyrimidine-2-carboxamide] |
| 0.0631 | 0.0631 | 0.1 | O=C(NCC1CCNCC1)c1nc2c(Nc3ccc(F)cc3OC(CF)CF)ncnc2s1 [Example 52, 7-[4-fluoro-2-[2-fluoro-1-(fluoromethyl)ethoxy]anilino]-N-(4-piperidylmethyl)thiazolo[5,4-d]pyrimidine-2-carboxamide] |
| 0.02 | 0.0316 | 0.794 | O=C(NCC1CCNCC1)c1nc2c(Nc3ccc4[nH]ncc4c3)ncnc2s1 [Example 50, 7-(1H-indazol-5-ylamino)-N-(4-piperidylmethyl)thiazolo[5,4-d]pyrimidine-2-carboxamide] |
| 0.00631 | 0.00501 | 0.02 | O=C(NCCN1CCCC1)c1nc2c(N3CCc4cc(F)ccc43)ncnc2s1 [Example 74, 7-(5-fluoroindolin-1-yl)-N-(2-pyrrolidin-1-ylethyl)thiazolo[5,4-d]pyrimidine-2-carboxamide] |
| 0.0501 | 0.0398 | 0.1 | CC(C)Oc1cc(F)ccc1Nc1ncnc2sc(C(=O)NCC3CNCCO3)nc12 (stereo not drawn) [Example 4, 7-(4-fluoro-2-isopropoxy-anilino)-N-(morpholin-2-ylmethyl)thiazolo[5,4-d]pyrimidine-2-carboxamide] |
| 0.01 | 0.02 | 0.1 | CN(C)CCCNc1nc2c(N3CCc4cc(F)ccc43)ncnc2s1 [Example 85, N1-(7-(5-fluoroindolin-1-yl)thiazolo[5,4-d]pyrimidin-2-yl)-N3,N3-dimethylpropane-1,3-diamine] |
| 0.00251 | 0.00251 | 0.00158 | O=C(NC1CCOCC1)c1nc2c(N3CCc4cc(O)ccc43)ncnc2s1 [Example 114, 7-(5-hydroxyindolin-1-yl)-N-tetrahydropyran-4-yl-thiazolo[5,4-d]pyrimidine-2-carboxamide] |
| 0.1 | 0.126 | 0.0794 | CO[C@@H]1CCC[C@H](Oc2cc(F)ccc2Nc2ncnc3sc(C(=O)NCC4CCNCC4)nc23)C1 [Example 61, 7-[4-fluoro-2-[(1S,3R)-3-methoxycyclohexoxy]anilino]-N-(4-piperidylmethyl)thiazolo[5,4-d]pyrimidine-2-carboxamide] |
| 0.0158 | 0.0158 | 0.0794 | C[C@@H]1Cc2ccccc2N1c1ncnc2sc(C(=O)NC3CCNCC3)nc12 [Example 129, 7-[(2R)-2-methylindolin-1-yl]-N-(4-piperidyl) thiazolo[5,4-d]pyrimidine-2-carboxamide] |
| 0.1 | 0.0794 | 0.0501 | CN(C)CCC1CN(c2ncnc3sc(C(=O)NC4CCOCC4)nc23)c2ccccc21 (stereo not drawn) [Example 152, 7-[3-[2-(dimethylamino)ethyl]-indolin-1-yl]-N-tetrahydropyran-4-yl-thiazolo[5,4-d]pyrimidine-2-carboxamide] |
| 0.00794 | 0.00501 | 0.00631 | O=C(NCC1CCNCC1)c1nc2c(N3CC(CCO)c4ccccc43)ncnc2s1 (stereo not drawn) [Example 136] |
| 0.00501 | 0.00501 | 0.00398 | COCCCNC(=O)c1nc2c(N3CC(CCN)c4ccccc43)ncnc2s1 (stereo not drawn) [Example 166, 7-[3-(2-amino-ethyl)indolin-1-yl]-N-(3-methoxypropyl) thiazolo[5,4-d]pyrimidine-2-carboxamide] |
| 0.0631 | 0.0631 | 0.0251 | CN1CCN(CCC2CN(c3ncnc4sc(C(=O)NC5CCOCC5)nc34)c3ccc(F)cc32)CC1 (stereo not drawn) [Example 150, 7-[5-fluoro-3-[2-(4-methylpiperazin-1-yl)ethyl]indolin-1-yl]-N-tetrahydropyran-4-yl-thiazolo[5,4-d]pyrimidine-2-carboxamide] |
| 0.631 | 0.316 | 0.316 | O=C(NCC1CCNCC1)c1nc2c(Nc3ccccc3-c3ccco3)ncnc2s1 [Example 62, 7-[2-(2-furyl)anilino]-N-(4-piperidylmethyl)thiazolo[5,4-d]pyrimidine-2-carboxamide] |
| 0.0794 | 0.0501 | 0.251 | CN1CCN(c2nc3c(N4CCc5cc(F)ccc54)ncnc3s2)CC1 [Example 88, 7-(5-fluoroindolin-1-yl)-2-(4-methylpiperazin-1-yl)thiazolo[5,4-d]pyrimidine] |
| 0.126 | 0.1 | 0.1 | CN(C)CCCNC(=O)c1nc2c(Nc3ccc(F)cc3O[C@H]3CCCOC3)ncnc2s1 [Example 17, N-[3-(dimethylamino)propyl]-7-[4-fluoro-2-[(3S)-tetrahydropyran-3-yl]oxy-anilino]thiazolo[5,4-d]pyrimidine-2-carboxamide] |
| 0.1 | 0.1 | 0.0794 | CCOc1cc(F)ccc1Nc1ncnc2sc(C(=O)NCCCN(C)C)nc12 [Example 24, N-[3-(Dimethylamino)propyl]-7-(2-ethoxy-4-fluoro-anilino)thiazolo[5,4-d]pyrimidine-2-carboxamide] |
| 0.00501 | 0.00501 | 0.00501 | CNCCCNC(=O)c1nc2c(N3CCc4cc(F)ccc43)ncnc2s1 [Example 72, 7-(5-fluoroindolin-1-yl)-N-[3-(methylamino)propyl]thiazolo[5,4-d]pyrimidine-2-carboxamide] |
| 0.01 | 0.00631 | 0.0158 | CNCCNC(=O)c1nc2c(N3CCc4cc(F)ccc43)ncnc2s1 [Example 71, 7-(5-fluoroindolin-1-yl)-N-[2-(methylamino)ethyl]thiazolo[5,4-d]pyrimidine-2-carboxamide] |
| 0.1 | 0.0631 | 0.0794 | CC(C)Oc1cc(F)ccc1Nc1ncnc2sc(C(=O)NCC3CCOCC3)nc12 [Example 38, 7-{[4-fluoro-2-(propan-2-yloxy)phenyl]amino}-N-(tetrahydro-2H-pyran-4-ylmethyl)[1,3]thiazolo[5,4-d]pyrimidine-2-carboxamide] |
| 0.0126 | 0.00794 | 0.0126 | O=C(NC1CCOCC1)c1nc2c(N3CC(CO)c4ccccc43)ncnc2s1 (stereo not drawn) [Example 109, 7-[3-(hydroxymethyl)indolin-1-yl]-N-tetrahydropyran-4-yl-thiazolo[5,4-d]pyrimidine-2-carboxamide] |
| 0.00501 | 0.00316 | 0.00501 | CNCCCNC(=O)c1nc2c(N3CC(C)(C)c4ccccc43)ncnc2s1 [Example 159] |
| 0.00501 | 0.00631 | 0.0631 | NCCC1CN(c2ncnc3sc(C(=O)NC4CCOCC4)nc23)c2ccccc21 (stereo not drawn) [Example 111, 7-[3-(2-aminoethyl)indolin-1-yl]-N-tetrahydropyran-4-yl-thiazolo[5,4-d]pyrimidine-2-carboxamide] |

From patent publication US10669284B2, “Fused thiazolopyrimidine derivatives as MNKS inhibitors” (LIFEARC, priority 2015, dated 2020)
